Data on 4 molecules can be found in patent US4581360A, “Sparsomycin (Sc -Rs) derivative; pharmaceutical composition having anti-tumor activity” (priority 1982, dated 1986).

The nature of one data set: solubility in water. Format: physicochemical. The method, then:
The n-octylsparsomycin is poorly dissolved in water (about 0.2 mg/ml water), whereas benzylsparsomycin is dissolved well in water (1.5 mg/ml water). As a consequence, the use of the latter compound is highly attractive.

The subject of a further data set is leukemia L 1210 cells. Kind of data set: in-vitro clonogenic L 1210 assay (inhibition of colony formation in soft agar). Format: cell-based. Particulars: for IC50: Mus musculus, L1210, 72 h, read-out: ID50 (dose giving 50% inhibition of L 1210 colony formation). Here is the method: The in-vitro clonogenic assay was effected in leukemia L 1210 cells in soft agar medium (0.3%). There is a good correlation between the activity in vitro and that in vivo of the medicaments investigated. On the basis of the findings in the in-vitro analysis, therefore, the in-vivo activity can be predicted with good results. In the analysis, the inhibition of the L 1210 colony formation by sparsomycin and derivates thereof is determined for various concentrations, and the dose giving 50% inhibition of the colony formation, as compared with non-treated control cells is calculated (ID50). The analysis is carried out as follows (variant of the method described in Cancer Chemother.Rep. (1967), 51, 451).
From a suspension culture one hundred L 1210 cells are plated out in 35 mm culture dishes (Falcon) containing 1 ml soft agar culture medium and the compound to be investigated in suitable concentrations. The soft agar culture medium consists of Dulbecco's medium supplemented with 20% horse serum, 60 μmole 2-mercaptoethanol, 20 mg/ml L-asparagine, 75 mg/ml DEAE dextran (molecular weight 2×10^6) and 0.3% bacto agar (Difco). The culture dishes were incubated at 37° C. in an atmosphere of 10% CO2 in humidified air for 3 days. After this period of continuous exposure to the medicament the colonies were counted and dose-effect curves made. From these curves, the medicament dose is calculated which causes 50% inhibition of the colony formation as compared with non-treated control cells.

For data set [1], the system named is ribosomes from E. coli (peptidyl transferase). Kind of data set: fragment reaction, cell-free system. The data set is classed as biochemical. Particulars: 30% ethanol in water, 30 min, read-out: ED50 E. coli fragment reaction. Here is the method:
(§1) The activity of the novel compounds was also measured in two cell-free systems, namely Saccharomyces cerevisiae and E. coli, a […]. The inhibition of the protein biosynthesis was measured, and this in two ways, by means of both the fragment reaction (R. E. Monro, Methods Enzymol. 1971, 20, 472) and the inhibition of the polyphenylalanine synthesis (N. W. Nirenberg, H. Matthei, Proc.Natl. Acad. Sci. USA 1961, 47, 1588). The concentration of sparsomycin or an analog giving 50% inhibition of the protein synthesis relative to the control is given as ED50.
(§2) Fragment reaction. The reaction described originally by Monro (see reference in the text) was carried out in 150 μl of 33 mM Tris-HCl pH 7.4, 270 mM KCl, 13 mM magnesium acetate containing 1 mg/ml of ribosomes, 2.10^-3 M puromycin, 1 pmol of (^3 H)Leu-ACCAC(U), the required concentration of sparsomycin analog as indicated in the text and 33% ethanol. The reaction was initiated by the addition of the alcohol and allowed to proceed at 0° C. for 30 min. and then stopped by the addition of 100 μl of 0.3M sodium acetate pH 5.5 saturated with MgSO4. The samples were extracted with 1.5 ml of ethyl acetate and 1 ml of the organic phase was checked for radioactivity.
(§3) The 3' terminal pentanucleotide (^3 H)Leu-ACCAC(U) was prepared from (^3 H)Leu-tRNA by ribonuclease T1 as described (Monro, as above).
(§4) Ribosomes and supernatant fractions from E. coli and Saccharomyces cerevisiae were prepared according to standard procedures (Staehelin, T. and Maglott D. R. (1971). Methods Enzymol. 20, 449-456; Sanchez-Madrid, F., Reyes, R., Conde, P. and Ballesta, J. P. G. (1979) Eur. J. Biochem. 98, 409-416).

The subject of data set [2] is ribosomes from Saccharomyces cerevisiae (peptidyl transferase). Kind of data set: fragment reaction, cell-free system. Format: biochemical. The conditions noted are these: 30% ethanol in water, 30 min, read-out: ED50 s.c. fragment reaction. Here is the method:
as §1, §2, §3, §4

Data set [3] deals with ribosomes from Saccharomyces cerevisiae (protein synthesis). The data set can be described thus: inhibition of polyphenylalanine synthesis, cell-free system. Particulars: 30 min, read-out: ED50 s.c. polyphe. The data set is classed as biochemical. Here is the method:
as §1
(§5) Polyphenylalanine synthesis. The reaction mixture was slightly different for E. coli and for yeast.
E. coli. The reaction mixture (50 μl) contained 65 mM Tris-HCl pH 7.6, 15 mM MgCl2, 90 mM KCl, 15 mM β-mercaptoethanol, 1 mM GTP, 10 mM ATP, 0.2 mg/ml of polyuridylic acid, 1.5 mg/ml of tRNA, 10 μM of ribosomes, 2.5 mg/ml of phosphoenolpyruvate, 20 μg/ml of pyruvate kinase, the required concentration of sparsomycin analog, as indicated in the text, and 5 μl of supernatant fraction S-100. (^3 H)phenylalanine 30 μM (about 60 cpm/pmol) was added to start the reaction. Incubation was at 37° C. for 30 min. The reaction was stopped by addition of 1 ml of 10% TCA and the samples filtered through glass fiber. The filters were washed with 10 ml of cold 10% TCA, dried and counted for radioactivity.
Yeast. The test was carried out as indicated above for E. Coli but replacing the phosphoenol pyruvate and pyruvate kinase by creatine phosphokinase (50 μg/ml) and creatine phosphate (20 mM). The incubation was performed at 30° C. for 30 min. and the samples processed as above.
In these conditions the control samples polymerized 3 to […] 14 molecules of phenylalanine per ribosome in the case of yeast and E. coli respectively. […]

Data set [4] deals with ribosomes from E. coli (protein synthesis). The data set is described as above. Format: biochemical. The conditions noted are these: 30 min, read-out: ED50 E. coli polyphe. Here is the method: The activity of the novel compounds was also measured in two cell-free systems, namely Saccharomyces cerevisiae and E. coli, a prokaryotic and a eukaryotic system, respectively.
as §5
E. coli. […] (^3 H)phenylalanine 30 μM (about 60 cpm/pmol) was added to start the reaction. Incubation was at 37° C. for 30 min. The reaction was stopped by addition of 1 ml of 10% TCA and the samples filtered through glass fiber. The filters were washed with 10 ml of cold 10% TCA, dried and counted for radioactivity.

The nature of data set [5]: acute toxicity (LDx values). Format: in vivo. Particulars: in vivo, mouse. The text has this: (§6) The acute LDx values (lethal dose for x% of the animals) are shown below.
The next data set can be described thus: pharmacokinetics in dog. Particulars: iv.
The next data set deals with mouse. The data set can be described thus: acute toxicity (LDx values). The data set is classed as in vivo. Particulars: i.p.
Excerpt: as §6

For data set [6] the following is noted: clinical tests (Cancer.Chemother.Rep. (1969), 43, 29); cited from earlier work.
A further data set concerns whole reticulocytes. The conditions noted are these: Biochem.Biophys. Acta (1966), 119, 109; cited from earlier work.
Where [7] appears, read: L 1210 cells, soft agar 0.3%, 3 days continuous exposure.

The term solubility denotes the dissolved amount per volume that the medium holds. Broadly, the LD50 is the dose expected to kill half of the subjects tested. By AUC is commonly meant the area under the concentration-time curve, a measure of exposure. As a reminder, the half-life is how long it takes for the measured level to halve. A low value points to rapid decline.

≈ marks a conversion by molar mass, not a printed value. Where two headings read alike, the source gives them in different places.

As to `CCCCCCCCSC[S@+]([O-])C[C@H](CO)NC(=O)/C=C/c1c(C)[nH]c(=O)[nH]c1=O` [n-octylsparsomycin, n-octyl-sparsomycin (Sc -Rs)], in “solubility in water” (read-out: solubility in water), the solubility is about 200 µg/mL (≈ 435 µM). The “activity relative to sparsomycin proper” value with leukemia L 1210 cells (L 1210 colony formation, concentrations in ng/ml) is on record as “approximately 3”. In addition, the “activity relative to sparsomycin, concentrations expressed in μmole/ml” value in the data set with leukemia L 1210 cells (L 1210 colony formation, concentrations in μmole/ml) is “approximately four times higher”. Further, the IC50 worked out at 0.047 µg/mL (≈ 0.102 µM) with leukemia L 1210 cells (setting [7]); 80 µM in data set [1]; 180 µM in data set [2]; 0.35 µM in data set [3]; 1.5 µM in [4]. The molecule also yielded an LD50 in [5] (iv) of over 30 mg/kg. The dose excreted in “pharmacokinetics in dog” (bile, 0.7 mg/kg) was 3.4%; in the data set “pharmacokinetics in dog” (urine, 0.7 mg/kg), 0%. The exposure (AUC) in the data set “pharmacokinetics in dog” (in vivo, 0.7 mg/kg) is 1100 ng·h/mL; in “pharmacokinetics in dog” (in vivo, 0.9 mg/kg), 1200 ng·h/mL. The half-life in “pharmacokinetics in dog” (in vivo, 0.7 mg/kg) is 1.1 h; in “pharmacokinetics in dog” (in vivo, 0.9 mg/kg), 1.6 h.
On to `Cc1[nH]c(=O)[nH]c(=O)c1C=CC(=O)NC(CO)C[S+]([O-])CSCc1ccccc1` (stereo not shown) [benzylsparsomycin, Benzylsparsomycin (Sc -Rs)], for which the solubility is 1500 µg/mL (≈ 3430 µM) in the data set “solubility in water” (H2O, pH=7, read-out: Solubility in H2O (pH=7)) and 1500 µg/mL (≈ 3430 µM) in “solubility in water” (read-out: solubility in water). Further, the values for the IC50 (in the data set on leukemia L 1210 cells; in data set [4]) were 0.048 µg/mL (≈ 0.11 µM) and 0.8 µM, respectively.
Take `CSC[S@+]([O-])C[C@H](COC(C)=O)NC(=O)/C=C/c1c(C)[nH]c(=O)[nH]c1=O` [O--acetylsparsomycin, O-acetyl-sparsomycin (Sc -Rs)]: the IC50 with leukemia L 1210 cells (setting [7]) was determined as 0.15 µg/mL (≈ 0.372 µM); in data set [1] it was 15 µM; in data set [2] it was 50 µM; in [3], 3 µM; in [4], 8 µM.
For `CSC[S@+]([O-])C[C@H](CO)NC(=O)/C=C/c1c(C)[nH]c(=O)[nH]c1=O` [sparsomycin, Sparsomycin (Sc -Rs)], the IC50 turned out to be 0.15 µg/mL (≈ 0.415 µM) in the data set on leukemia L 1210 cells; 6 µM in [1]; 15 µM in data set [2]; 4 µM in [3]; 9 µM in [4]. The LD50 in data set [5] (ip) was determined as 14 mg/kg. The LD10 with mouse was determined as 8.0 mg per kg mouse. The “toxicity in clinical tests” value in data set [6] is “eye toxicity”. The “activity against whole reticulocytes” value in the data set with whole reticulocytes is “not active”. The area under the curve (AUC) in the data set “pharmacokinetics in dog” (in vivo, 0.7 mg/kg) was found to be 1300 ng·h/mL; in the data set “pharmacokinetics in dog” (in vivo, 1.48 mg/kg), 10800 ng·h/mL. Further, the half-life in the data set “pharmacokinetics in dog” (in vivo, 0.7 mg/kg) is 1.1 h; in “pharmacokinetics in dog” (in vivo, 1.48 mg/kg), 2.3 h. The dose excreted turned out to be 24% in the data set “pharmacokinetics in dog” (in vivo, 0.7 mg/kg, Recovery in urine, i.v. bolus); 2% in the data set “pharmacokinetics in dog” (in vivo, 1.48 mg/kg, Recovery in gall liquid, i.v. bolus); 55% in the data set “pharmacokinetics in dog” (in vivo, 1.48 mg/kg, Recovery in urine, i.v. bolus).
